This note sets out measurements from patent US5220018A, “Cholecystokinin antagonists” (Merck & Co., Inc., priority 1992, dated 1993).

pIC50: −log10 of the molar value. Like-named read-outs stand apart in the source and are kept apart here. Some results are limits rather than exact numbers.

The target of one assay is T1, CCK Receptor (Pancreas) (Rattus norvegicus, UniProt P30551).
T1 construct: The whole pancreas was dissected free of fat tissue and was homogenized; from tissue; host or cells: rat whole pancreas, homogenate membranes
T1 sequence (P30551 1-444): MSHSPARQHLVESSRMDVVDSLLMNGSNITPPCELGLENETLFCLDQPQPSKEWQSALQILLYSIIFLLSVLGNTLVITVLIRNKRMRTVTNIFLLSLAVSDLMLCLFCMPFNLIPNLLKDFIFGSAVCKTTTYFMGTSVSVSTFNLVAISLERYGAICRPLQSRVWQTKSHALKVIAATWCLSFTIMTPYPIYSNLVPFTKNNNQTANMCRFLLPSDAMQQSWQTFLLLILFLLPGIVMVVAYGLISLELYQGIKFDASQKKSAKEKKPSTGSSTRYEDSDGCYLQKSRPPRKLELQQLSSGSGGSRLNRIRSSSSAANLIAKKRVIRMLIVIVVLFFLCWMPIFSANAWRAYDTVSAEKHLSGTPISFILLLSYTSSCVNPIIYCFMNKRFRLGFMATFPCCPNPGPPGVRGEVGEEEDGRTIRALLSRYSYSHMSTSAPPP
The assay is described as follows: biochemical. Type of assay: binding, Male Sprague-Dawley rats. Here is the method: 1. CCK Receptor Binding (Pancreas)
CCK-8 sulphated was radiolabelled with ^125 I-Bolton Hunter reagent (2000 Ci/mmole). Receptor binding was performed according to Chang and Lotti (Proc. Natl. Acad. Sci. 83, 4923-4926, 1986) with minor modifications.
Male Sprague-Dawley rats (150-200 g) were sacrificed by decapitation. The whole pancreas was dissected free of fat tissue and was homogenized in 25 volumes of ice-cold 10 mM Hepes buffer with 0.1% soya bean trypsin inhibitor (pH 7.4 at 25° C.) with a Kinematica Polytron. The homogenates were centrifuged at 47,800 g for 10 min. Pellets were resuspended in 10 volumes of binding assay buffer (20 mM Hepes, 1 mM EGTA, 5 mM MgCl2, 150 mM NaCl, bacitracin 0.25 mg/ml, soya bean trypsin inhibitor 0.1 mg/ml, and bovine serum albumin 2 mg/ml, pH 6.5 at 25° C.) using a teflon homogenizer, 15 strokes at 500 rpm. The homogenate was further diluted in binding assay buffer to give a final concentration of 0.5 mg original wet weight/1 ml buffer. […] All assays were run in duplicate. The reaction mixtures were incubated at 25° C. for 2 hours and the reaction terminated by rapid filtration (Brandell 24 well cell harvester) over Whatman GF/C filters, washing 3×4 mls with ice-cold 100 mM NaCl. The radioactivity on the filters was counted with a LKB gamma counter.
(§1) Drug displacement studies were performed with at least 10 concentrations of compounds of formula 1 and the IC50 values were determined by regression analysis.

A further assay addresses T2, CCK Receptor (Brain) (Cavia porcellus, UniProt H0VZC5).
T2 construct: the cortex was removed and homogenized in 25 mL ice-cold 0.32M sucrose; from tissue; host or cells: guinea pig cerebral cortex, P2 membrane pellet
T2 sequence (H0VZC5 1-426): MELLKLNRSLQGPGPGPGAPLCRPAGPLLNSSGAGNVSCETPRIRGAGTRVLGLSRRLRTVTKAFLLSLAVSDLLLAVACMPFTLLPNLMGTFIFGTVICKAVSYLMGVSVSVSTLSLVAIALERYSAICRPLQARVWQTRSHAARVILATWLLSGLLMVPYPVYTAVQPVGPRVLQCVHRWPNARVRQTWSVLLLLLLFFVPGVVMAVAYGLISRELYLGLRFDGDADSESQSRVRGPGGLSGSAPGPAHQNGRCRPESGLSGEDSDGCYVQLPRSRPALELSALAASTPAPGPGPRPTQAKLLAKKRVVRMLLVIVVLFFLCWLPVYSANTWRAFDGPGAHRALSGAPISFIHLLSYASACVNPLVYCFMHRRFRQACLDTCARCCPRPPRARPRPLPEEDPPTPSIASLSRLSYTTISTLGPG
The assay is described as follows: CCK Receptor Binding (Brain), inhibition of 125I-CCK-8 binding. Also noted: species or system Male Hartley guinea pigs. Here is the method:
2. CCK Receptor Binding (Brain)
CCK-8 sulphated was radiolabelled and the binding was performed according to the description for the pancreas method with minor modifications.
Male Hartley guinea pigs (300-500 g) were sacrificed by decapitation and the cortex was removed and homogenized in 25 mL ice-cold 0.32M sucrose. The homogenates were centrifuged at 1000 g for 10 minutes and the resulting supernatant was recentrifuged at 20,000 g for 20 minutes. […] All assays were run in duplicate. The reaction mixtures were incubated at 25° C. for 2 hours and then the reaction was terminated on Whatman GF/C filters by rapid filtration (Brandell 24 well cell Harvester) with 3×5 ml washes of cold 100 mM NaCl. The radioactivity on the filters was then counted with a LKB gamma counter.
as §1

[1] abbreviates: rat pancreas membranes, 125I-CCK-8 50 pM, 25° C., 2 hours, read-out: IC50, 125I-CCK Pancreas.
[2] abbreviates: guinea pig cortex membranes, 125I-CCK-8 50 pM, 25° C., 2 hours, read-out: IC50, 125I-CCK Brain.

Turning to `CC(C)CN1C(=O)C(NC(=O)Nc2cccc(-c3nnn[nH]3)c2)N=C(c2ccccc2F)c2ccccc21` (racemic) [Example 21, N-[3(R,S)-2,3-Dihydro-5-(2-fluorophenyl)-1-(2-methylpropyl)-2-oxo-1H-1,4-benzodiazepin-3-yl]-N'-{[3-(tetrazol-5-yl)phenyl]urea}], the results for the pIC50 on CCK Receptor (Pancreas) (setting [1]) and at CCK Receptor (Brain) (setting [2]) were 6.82 and 8.85, respectively.

Take `CCN1C(=O)C(NC(=O)Nc2cccc(-c3nnn[nH]3)c2)N=C(c2ccccc2)c2ccccc21` (stereo not drawn) [Example 3, N-{1,3-Dihydro-1-ethyl-2-oxo-5-phenyl-1H-1,4-benzodiazepin-3-yl}-N'-{[3-(1H-tetrazol-5-yl)phenyl]urea}]: the values for the negative-log IC50 (pIC50) on CCK Receptor (Pancreas) and at CCK Receptor (Brain) (setting [2]) were 7.54 and 8.80, respectively.

For the compound `CC(C)N1C(=O)C(NC(=O)Nc2cccc(-c3nnn[nH]3)c2)N=C(c2ccccc2)c2ccccc21` (stereo not drawn) [Example 4, N-{1,3-Dihydro-1-[2-propyl]-2-oxo-5-phenyl-1H-1,4-benzodiazepin-3-yl}-N'-{[3-(1H-tetrazol-5-yl)phenyl]urea}], the pIC50 at CCK Receptor (Pancreas) (setting [1]) is 6.70; on CCK Receptor (Brain) (setting [2]), 8.39.

As for `CN1C(=O)[C@H](NC(=O)Nc2ccc(Cl)nc2)N=C(c2ccccc2)c2ccccc21` [Example 5, N-{1,3-Dihydro-1-methyl-2-oxo-5-phenyl-1H-1,4-benzodiazepin-3-yl}-N'-{[5-(2-chloro)pyridyl]urea}], the pIC50 at CCK Receptor (Pancreas) (setting [1]) was below 5.52; at CCK Receptor (Brain), 7.34.

Take `COc1ccc(NC(=O)N[C@@H]2N=C(c3ccccc3)c3ccccc3N(C)C2=O)cn1` [Example 6, N-{1,3-Dihydro-1-methyl-2-oxo-5-phenyl-1H-1,4-benzodiazepin-3-yl}-N'-{[5-(2-methoxy)pyridyl]urea}]: the pIC50 was 5.70 at CCK Receptor (Pancreas) (setting [1]) and 7.32 on CCK Receptor (Brain) (setting [2]).

Take `CN1C(=O)[C@H](NC(=O)Nc2cccc(C#N)c2)N=C(c2ccccc2)c2ccccc21` [Example 7, N-{1,3-Dihydro-1-methyl-2-oxo-5-phenyl-1H-1,4-benzodiazepin-3-yl}-N'-{[3-(cyano)phenyl]urea}]: the negative-log IC50 (pIC50) on CCK Receptor (Pancreas) (setting [1]) is 5.51; on CCK Receptor (Brain) (setting [2]), 7.57.

In the case of `CC(=O)c1cccc(NC(=O)N[C@@H]2N=C(c3ccccc3)c3ccccc3N(C)C2=O)c1` [Example 8, N-{1,3-Dihydro-1-methyl-2-oxo-5-phenyl-1H-1,4-benzodiazepin-3-yl}-N'-{[3-(acetyl)phenyl]urea}], the pIC50 on CCK Receptor (Pancreas) (setting [1]) is 5.92; at CCK Receptor (Brain) (setting [2]) it was 8.44.

With `CN1C(=O)[C@H](NC(=O)Nc2cccc(N)c2)N=C(c2ccccc2)c2ccccc21` [Example 9, N-{1,3-Dihydro-1-methyl-2-oxo-5-phenyl-1H-1,4-benzodiazepin-3-yl}-N'-{[3-(amino)phenyl]urea}], the negative-log IC50 (pIC50) on CCK Receptor (Pancreas) (setting [1]) is below 5.52; at CCK Receptor (Brain) (setting [2]) it was 7.48.

As to `CN1C(=O)[C@H](NC(=O)Nc2cccc(C(N)=O)c2)N=C(c2ccccc2)c2ccccc21` [Example 10, N-{1,3-Dihydro-1-methyl-2-oxo-5-phenyl-1H-1,4-benzodiazepin-3-yl}-N'-{[3-(aminocarbonyl)phenyl]urea}], the figures for the pIC50 at CCK Receptor (Pancreas) (setting [1]) and at CCK Receptor (Brain) (setting [2]) were 5.87 and 7.55, respectively.

Consider `COP(=O)(Nc1cccc(NC(=O)N[C@@H]2N=C(c3ccccc3)c3ccccc3N(C)C2=O)c1)OC` [Example 11, N-{1,3-Dihydro-1-methyl-2-oxo-5-phenyl-1H-1,4-benzodiazepin-3-yl}-N'-{[3-(dimethylphosphoramido)phenyl]urea}], for which the pIC50 was 6.52 at CCK Receptor (Pancreas) (setting [1]) and 7.00 at CCK Receptor (Brain) (setting [2]).

For `CN1C(=O)[C@H](NC(=O)Nc2cccc(NS(N)(=O)=O)c2)N=C(c2ccccc2)c2ccccc21` [Example 12, N-{1,3-Dihydro-1-methyl-2-oxo-5-phenyl-1H-1,4-benzodiazepin-3-yl}-N'-{[3-(aminosulfonamido)phenyl]urea}], the pIC50 was 6.28 at CCK Receptor (Pancreas) (setting [1]) and 7.49 on CCK Receptor (Brain) (setting [2]).

Consider `CN1C(=O)[C@H](NC(=O)Nc2ccc3[nH]nnc3c2)N=C(c2ccccc2)c2ccccc21` [Example 13], for which the pIC50 against CCK Receptor (Pancreas) is 5.82; on CCK Receptor (Brain) (setting [2]), 7.72.
